The source of these data is publication PMC4838890, “Dynamic and flexible H3K9me3 bridging via HP1β dimerization establishes a plastic state of condensed chromatin” (Nature Communications, 2016).

For assay [1], the system named is H3KC9me3 oligonucleosomes. Nature of the assay: Chromatin coprecipitation, H3KC9me3 oligonucleosomes. It counts as binding, Xenopus laevis. As for the experimental part:
6.7 nM oligonucleosomes were incubated with 1 μM recombinant protein in 100 μl binding buffer (10 mM triethanolamine (pH 7.5), 150 mM NaCl, 5 mM MgCl2, 0.1 mM EDTA, 0.1% (v/v) Triton-X100) for 1 h on ice. Precipitated chromatin complexes were recovered by centrifugation at 16,100g for 30 min at 4°C. Pellets were washed once with 0.5 ml binding buffer and centrifuged for 15 min at 4 °C. Precipitated material was resuspended in 10 μl 1 × SDS loading buffer and boiled for 5 min before running on SDS–PAGE.
(§1) Supplementary Table 1: Summary of conditions used in the different experiments of this study.
(§2) experiment result modification template Temp. [NaCl] [MgCl2]
(§3) chromatin Fig. 1e,f; Fig. S1f-h; H3K9me3 oligo- 4 150 5

Assay [2] has as its system H3K9me3 oligonucleosomes in the absence of the H4 N-terminal tail. Nature of the assay: Chromatin coprecipitation, H3K9me3 oligonucleosomes with tailless H4. It is filed as binding, Xenopus laevis. The settings on record: 150 mM NaCl, western blot. As for the experimental part:
[…] Precipitated chromatin complexes were recovered by centrifugation at 16,100g for 30 min at 4°C. Pellets were washed once with 0.5 ml binding buffer and centrifuged for 15 min at 4 °C. Precipitated material was resuspended in 10 μl 1 × SDS loading buffer and boiled for 5 min before running on SDS–PAGE.
as §1, §2, §3
Background: A western blot detects proteins with antibodies after separation by electrophoresis.

Entries after “also recorded” stand apart in the source; their conditions may differ.

On to “hHP1β WT: recombinant human heterochromatin protein 1β (GenBank NM_001127228), 185 aa”, for which the “recovery with H3KC9me3 oligonucleosomes” value in assay [1] (6.7 nM oligonucleosomes, 1 μM protein, 150 mM NaCl, 5 mM MgCl2) was “bound specifically to H3K9me3 oligonucleosomes irrespective of the saturation level of the chromatin template”. Moreover, the “molecules bound per nucleosome” value in assay [1] (saturating protein concentrations) is reported as “two”. For the same substance, the “recovery at 3.5 mM and 7.0 mM MgCl2 with tailless H4 chromatin” value in assay [2] is reported as “reduced recovery of hHP1β with H3K9me3 oligonucleosomes in the absence of the H4 N-terminal tail at 3.5 mM MgCl2; also recorded: recovery at 7.0 mM MgCl2 was comparable to the level obtained with H3K9me3 oligonucleosomes containing WT core histones”.
